# Several values for one entry are separate records, joined by “and”; a condition that tells them apart may be missing. Equal entries are not always repeated.
# What was measured:
# [1] = test system: E. faecalis ATCC 29212; test: Broth microdilution MIC/MBC; type: cell-based, Enterococcus faecalis; conditions: 24 h exposure; v/v; n = 3
# From the text: (§1) The bacterial strains used for AST of the solvents included: Staphylococcus aureus (ATCC 29213), Staphylococcus aureus—MRSA (NBIMCC 8327—resistant to methicillin and oxacillin, National Bulgarian Collection for Industrial Microorganisms and Cell Cultures, Sofia, Bulgaria), Streptococcus pyogenes (SAIMC 10535, Collection of the Stephan Angeloff Institute of Microbiology, Sofia, Bulgaria), Enterococcus faecalis (ATCC 29212), Escherichia coli (ATCC 35218), Pseudomonas aeruginosa (ATCC 27853), and Yersinia enterocolitica (IP864 O:3, Collection of Institut Pasteur, Paris, France). The selected strains are the most often investigated ones in the AST research studies in correspondence with the standard ISO 20776-1 Part 1: Reference method for testing the in vitro activity of antimicrobial agents against rapidly growing aerobic bacteria involved in infectious diseases. The antimycotic activity was tested on Candida albicans (CBS 562, Utrecht, The Netherlands). The strains S. aureus, MRSA, E. coli and E. faecalis were grown on Mueller–Hinton broth/agar (MHB/MHA); S. pyogenes, P. aeruginosa, Y. enterocolitica and C. albicans were grown on brain heart infusion (BHI) broth/agar; E. coli was also grown on Luria–Bertani broth/agar (LBB/LBA).
# (§2) The minimum inhibitory concentration (MIC) for each solvent was estimated by the broth microdilution method (BMD) in 96-well microplates, following ISO 20776/1-2006 [3] and CLSI protocols. Briefly, a standardized bacterial inoculum was prepared from each bacterial species by suspending 3–4 colonies from a pure culture into 4 mL sterile saline. The turbidity of the inocula was adjusted to McFarland 0.5 (1.0 × 10^8 CFU/mL, λ = 600 nm), and 50 µL were resuspended in 10 mL of the appropriate culture medium for each strain. The bacterial inocula were added to microtiter trays containing equivalent volumes of medium loaded with the relevant solvent in concentrations varying from 0.025 to 25% volume fraction. The final volume of each sample was 100 µL/well. The plates were incubated at 37 °C for 24 h. The pure culture medium served as a negative control. Every MIC was evaluated visually as the lowest concentration without visible growth. […] MBC was defined as the lowest compound’s concentration reducing the colony growth of the initial bacterial inoculum by ≥ 99.9%.
# [2] = test system: S. pyogenes SAIMC 10535; test: Dehydrogenase activity (DEHA) MTT test after BMD; type: cell-based, Streptococcus pyogenes; conditions: 24 h exposure; % against untreated control; ± SD; n = 3
# Experimental: (§3) The cell dehydrogenase (DEHA, redox, metabolic) activity of all samples was measured at the end of the BMD assay, based on reducing the MTT dye to formazan by the membrane located bacterial enzyme NADH: ubiquinone reductase (H^+-translocation). The protocol of Wang et al. was applied after minor modifications. Briefly, each sample was incubated for 120 min at 37 °C with MTT at a final concentration of 0.5 mg/mL in the culture medium. The resulting non-soluble violet formazan crystals were dissolved with an equal volume of 2-propanol supplemented with 5% formic acid. The absorbance was measured at 550 nm against a blank solution containing the respective volumes of MHB and MTT.
# (§4) The cell viability is presented as a percentage of the untreated control. At least four wells were seeded for every concentration. Three independent assays were performed (n = 3). […] The respiratory activity of the bacterial cultures was calculated as a percentage against the untreated control.
# [3] = test system: E. faecalis ATCC 29212; test: Dehydrogenase activity (DEHA) MTT test after BMD; type: cell-based, Enterococcus faecalis; conditions: 24 h exposure; % against untreated control; ± SD; n = 3
# Experimental: as §3, §4
# [4] = test system: Candida Albicans SAIMC 562; test: Dehydrogenase activity (DEHA) MTT test after BMD; type: cell-based; conditions: 24 h exposure; % active cells against untreated control; ± SD; n = 3
# Experimental: as §3
# (§5) The IC50 values from the MTT assay were evaluated with a non-linear regression analysis (Curve fit, GraphPad Prizm 6.01 software, GraphPad Software Inc., San Diego, CA, USA) using sigmoidal concentration–response curves. The cell viability is presented as a percentage of the untreated control. […] The maximum tolerated concentration (MTC) for the cell lines was determined from three independent assays according to ISO 10993-5 as the maximum concentration at which at least 70% of the cells were viable (nonlin fit, range, GraphPad Prizm 6.01 software) GraphPad Software Inc., San Diego, CA, USA). […] The respiratory activity of the bacterial cultures was calculated as a percentage against the untreated control.
# [5] = test system: E. coli ATCC 35218; test: Broth microdilution MIC/MBC; type: cell-based, Escherichia coli; conditions: 24 h exposure, v/v, n = 3
# From the text: as §1, §2
# [6] = test system: S. Aureus MRSA NBIMCC 8327; test: Broth microdilution MIC/MBC; type: cell-based, Staphylococcus aureus; conditions: 24 h exposure; v/v; n = 3
# From the text: as §1, §2
# [7] = test system: S. Aureus ATCC 29213; test: Broth microdilution MIC/MBC; type: cell-based, Staphylococcus aureus; conditions: 24 h exposure; v/v; n = 3
# From the text: as §1, §2
# [8] = test system: Candida Albicans SAIMC 562; test: Broth microdilution MIC/MBC; type: cell-based; conditions: 24 h exposure; v/v; n = 3
# From the text: as §1, with “The antimycotic activity was tested on Candida albicans (CBS 562, Utrecht, The Netherlands).” left out
# as §2
# [9] = test system: Y. enterocolitica IP 864 O: 3; test: Dehydrogenase activity (DEHA) MTT test after BMD; type: cell-based, Yersinia enterocolitica; conditions: 24 h exposure; % against untreated control; ± SD; n = 3
# Experimental: as §3
# The IC50 values from the MTT assay were evaluated with a non-linear regression analysis (Curve fit, GraphPad Prizm 6.01 software, GraphPad Software Inc., San Diego, CA, USA) using sigmoidal concentration–response curves. The cell viability is presented as a percentage of the untreated control. At least four wells were seeded for every concentration. Three independent assays were performed (n = 3). The maximum tolerated concentration (MTC) for the cell lines was determined from three independent assays according to ISO 10993-5 as the maximum concentration at which at least 70% of the cells were viable (nonlin fit, range, GraphPad Prizm 6.01 software) GraphPad Software Inc., San Diego, CA, USA). To compare the MTC values of the solvents for each cell line, the ordinary One-way ANOVA statistical analysis based on Tukey’s multiple comparisons test with a single pooled variance (GraphPad Prizm 6.01 software) GraphPad Software Inc., San Diego, CA, USA) was utilized, and p ≤ 0.05 was set as a significance level. The respiratory activity of the bacterial cultures was calculated as a percentage against the untreated control.
# [10] = test system: Y. enterocolitica IP 864 O: 3; test: Broth microdilution MIC/MBC; type: cell-based, Yersinia enterocolitica; conditions: 24 h exposure; v/v; n = 3
# From the text: as §1, §2
# [11] = test system: S. Aureus ATCC 29213; test: Dehydrogenase activity (DEHA) MTT test after BMD; type: cell-based, Staphylococcus aureus; conditions: 24 h exposure; % against untreated control; ± SD; n = 3
# Experimental: as §3, §4
# [12] = test system: P. aeruginosa ATCC 27853; test: Broth microdilution MIC/MBC; type: cell-based, Pseudomonas aeruginosa; conditions: 24 h exposure; v/v; n = 3
# From the text: as §1, §2
# [13] = no reference given; cited from earlier work
# [14] = test system: E. coli ATCC 35218; test: Dehydrogenase activity (DEHA) MTT test after BMD; type: cell-based, Escherichia coli; conditions: in MHB; 24 h exposure; % against untreated control; ± SD; n = 3
# Experimental: as §3, §5
# [15] = test system: S. pyogenes SAIMC 10535; test: Broth microdilution MIC/MBC; type: cell-based, Streptococcus pyogenes; conditions: 24 h exposure; v/v; n = 3
# From the text: as §1, §2
# [16] = test system: P. aeruginosa ATCC 27853; test: Dehydrogenase activity (DEHA) MTT test after BMD; type: cell-based, Pseudomonas aeruginosa; conditions: 24 h exposure; % against untreated control; ± SD; n = 3
# Experimental: as §3, §4
# [17] = test system: breast cancer, mouse macrophage and human umbilical vein endothelial cells; set-up: method as in doi:10.17795/ajmb-33453; conditions: cited from earlier work
# [18] = test system: Chinese hamster liver cell line; conditions: cited from earlier work
# [19] = test system: S. epidermidis; set-up: method as in doi:10.5580/b43; conditions: in the presence of 6% solvent; cited from earlier work
Compound,MBC [1],MIC [1],DEHA (dehydrogenase activity) [2],MBC ([5]; in LBB),MIC ([5]; in LBB),MBC ([5]; in MHB),MIC ([5]; in MHB),MBC [6],MIC [6],MBC [7],MIC [7],MBC [8],MIC [8],MBC [10],MIC [10],MBC [12],MIC [12],Experimental logP [13],MBC [15],MIC [15],other results
"COCCO [MEtOH, 2-methoxyethanol]",>25%,12.5%,28.02 ± 0.02%,12.5%,12.5%,25%,12.5%,25%,25%,>25%,25%,12.5%,6.25%,25%,12.5%,25%,6.25%,−0.77,>25%,12.5%,DEHA (dehydrogenase activity) [3]: 25.60 ± 0.04%; DEHA (dehydrogenase activity) [4]: 77.41 ± 0.03%; DEHA (dehydrogenase activity) [9]: 11.76 ± 0.004%; DEHA (dehydrogenase activity) [11]: 10.27 ± 0.01%; DEHA (dehydrogenase activity) [14]: 5.86 ± 0.005%; DEHA (dehydrogenase activity) [16]: 20.23 ± 0.06%
CC(C)=O [acetone],,,,,,,,,,,,,,,,,,,,,maximum tolerated concentration (MTC) / applicable concentration [17]: up to 0.5 % v/v
"COCCOC [DME, 1,2-dimethoxyethane]",12.5%,12.5%,31.32 ± 0.05%,6.25%,3.125%,12.5%,12.5%,3.125%,3.125%,12.5%,6.25%,25%,12.5%,6.25%,3.125%,12.5%,12.5%,−0.21,>25%,6.25%,DEHA (dehydrogenase activity) [4]: 31.23% and 31.23 ± 0.01%; DEHA (dehydrogenase activity) [9]: 49.04 ± 0.005%; DEHA (dehydrogenase activity) [11]: 12.54 ± 0.03%
PEG-200,,,,,,,,,,,,,,,,,,,,,clastogenic concentrations [18]: 5 to 7 mM
"CO [MeOH, methanol]",>25%,>25%,,>25%,>25%,>25%,>25%,>25%,>25%,>25%,>25%,>25%,>25%,>25%,>25%,>25%,>25%,−0.77,>25%,>25%,survival [19]: 26%

# Source: article PMC8143291, “Cytotoxicity and Microbicidal Activity of Commonly Used Organic Solvents: A Comparative Study and Application to a Standardized Extract from Vaccinium macrocarpon” (Toxics, 2021)
